Experimental data from the NIST ThermoML archive (doi:10.1021/acs.jced.8b00837).
Several values for one entry are separate records, joined by “and”; a condition that tells them apart may be missing. Equal entries are not always repeated. Numbers after ± are expanded uncertainties.

Conditions: Liquid, Vibrating tube method

CCCCn1cc[n+](C)c1.O=S(=O)([O-])C(F)(F)F [1-butyl-3-methylimidazolium trifluoromethanesulfonate]
Conditions | mass density
283.14 K, 20345 kPa | 1320.61 ± 1.8 kg/m3
283.15 K, 101 kPa | 1309.81 ± 1.5 kg/m3 and 1309.8 ± 1.5 kg/m3
283.15 K, 5337 kPa | 1312.37 ± 1.6 kg/m3
283.15 K, 9906 kPa | 1315.03 ± 1.7 kg/m3
283.15 K, 29997 kPa | 1325.6 ± 2 kg/m3
283.15 K, 90097 kPa | 1353.37 ± 2.9 kg/m3
283.15 K, 100086 kPa | 1357.13 ± 3 kg/m3
283.15 K, 109957 kPa | 1361.36 ± 3.2 kg/m3
283.15 K, 119997 kPa | 1365.53 ± 3.4 kg/m3
283.15 K, 129993 kPa | 1369.54 ± 3.5 kg/m3
283.15 K, 139996 kPa | 1373.39 ± 3.7 kg/m3
283.16 K, 49996 kPa | 1335.42 ± 2.2 kg/m3
283.16 K, 60363 kPa | 1340.27 ± 2.4 kg/m3
283.16 K, 69993 kPa | 1344.64 ± 2.6 kg/m3
283.16 K, 79621 kPa | 1348.88 ± 2.7 kg/m3
283.17 K, 1225 kPa | 1310.35 ± 1.6 kg/m3
283.17 K, 40094 kPa | 1330.63 ± 2.1 kg/m3
288.15 K, 101 kPa | 1305.77 ± 1.5 kg/m3
293.15 K, 101 kPa | 1301.75 ± 1.5 kg/m3 and 1301.72 ± 1.5 kg/m3
293.15 K, 9722 kPa | 1307 ± 1.6 kg/m3
293.15 K, 20425 kPa | 1312.86 ± 1.8 kg/m3
293.15 K, 29997 kPa | 1317.9 ± 1.9 kg/m3
293.15 K, 49997 kPa | 1327.93 ± 2.2 kg/m3
293.15 K, 69996 kPa | 1337.34 ± 2.5 kg/m3
293.15 K, 89996 kPa | 1346.17 ± 2.8 kg/m3
293.15 K, 109846 kPa | 1354.33 ± 3.2 kg/m3
293.15 K, 119150 kPa | 1358.24 ± 3.3 kg/m3
293.15 K, 129846 kPa | 1362.58 ± 3.5 kg/m3
293.15 K, 138949 kPa | 1366.14 ± 3.6 kg/m3
293.16 K, 40322 kPa | 1323.16 ± 2.1 kg/m3
293.16 K, 60340 kPa | 1332.87 ± 2.4 kg/m3
293.16 K, 100028 kPa | 1350.06 ± 3 kg/m3
293.17 K, 80507 kPa | 1342.04 ± 2.7 kg/m3
293.2 K, 1740 kPa | 1302.55 ± 1.5 kg/m3
293.2 K, 4978 kPa | 1304.2 ± 1.6 kg/m3
298.13 K, 30005 kPa | 1314.25 ± 1.9 kg/m3
298.13 K, 90001 kPa | 1342.82 ± 2.8 kg/m3
298.14 K, 59968 kPa | 1329.2 ± 2.4 kg/m3
298.15 K, 101 kPa | 1297.74 ± 1.5 kg/m3 and 1297.8 ± 1.5 kg/m3
298.15 K, 1023 kPa | 1298.28 ± 1.5 kg/m3
298.15 K, 10006 kPa | 1303.37 ± 1.6 kg/m3
298.15 K, 19968 kPa | 1308.89 ± 1.8 kg/m3
298.15 K, 40008 kPa | 1319.41 ± 2.1 kg/m3
298.15 K, 49962 kPa | 1324.37 ± 2.2 kg/m3
298.15 K, 70005 kPa | 1333.89 ± 2.5 kg/m3
298.15 K, 79986 kPa | 1338.41 ± 2.7 kg/m3
298.15 K, 99997 kPa | 1347.1 ± 3 kg/m3
298.15 K, 109968 kPa | 1351.04 ± 3.1 kg/m3
298.15 K, 120001 kPa | 1355.27 ± 3.3 kg/m3
298.15 K, 139996 kPa | 1363.31 ± 3.6 kg/m3
298.16 K, 5026 kPa | 1300.4 ± 1.6 kg/m3
298.16 K, 130002 kPa | 1359.35 ± 3.5 kg/m3
303.15 K, 101 kPa | 1293.74 ± 1.5 kg/m3
313.13 K, 101 kPa | 1285.81 ± 1.5 kg/m3
313.15 K, 101 kPa | 1285.7 ± 1.5 kg/m3
313.15 K, 10395 kPa | 1291.48 ± 1.6 kg/m3
313.15 K, 20326 kPa | 1296.92 ± 1.7 kg/m3
313.15 K, 29996 kPa | 1302.11 ± 1.9 kg/m3
313.15 K, 40009 kPa | 1307.36 ± 2 kg/m3
313.15 K, 49994 kPa | 1312.48 ± 2.1 kg/m3
313.15 K, 70102 kPa | 1322.42 ± 2.4 kg/m3
313.15 K, 79871 kPa | 1327.08 ± 2.6 kg/m3
313.15 K, 90021 kPa | 1331.79 ± 2.8 kg/m3
313.15 K, 99922 kPa | 1336.27 ± 2.9 kg/m3
313.15 K, 109826 kPa | 1340.63 ± 3.1 kg/m3
313.15 K, 121633 kPa | 1345.69 ± 3.3 kg/m3
313.15 K, 129825 kPa | 1349.1 ± 3.4 kg/m3
313.15 K, 139153 kPa | 1352.88 ± 3.5 kg/m3
313.16 K, 60130 kPa | 1317.55 ± 2.3 kg/m3
313.2 K, 1097 kPa | 1286.27 ± 1.5 kg/m3
313.2 K, 5364 kPa | 1288.67 ± 1.5 kg/m3
333.09 K, 1557 kPa | 1270.96 ± 1.5 kg/m3
333.1 K, 5234 kPa | 1273.19 ± 1.5 kg/m3
333.11 K, 9847 kPa | 1275.96 ± 1.6 kg/m3
333.14 K, 19578 kPa | 1281.68 ± 1.7 kg/m3
333.15 K, 101 kPa | 1270.09 ± 1.4 kg/m3 and 1270.06 ± 1.4 kg/m3
333.15 K, 29996 kPa | 1287.62 ± 1.8 kg/m3
333.15 K, 69992 kPa | 1308.75 ± 2.4 kg/m3
